Assay results as given in PubChem BioAssay (NCI).
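GI50 is the concentration that inhibits growth by half. TGI denotes the concentration required for complete inhibition of growth.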

Columns and labels:
Assay in all cases: inhibition of tumour cell growth, NCI panel, 384-well format
786-0 renal = test system: 786-0 renal
A498 renal = test system: A498 renal
A549 NSCLC = test system: A549 NSCLC
ACHN renal = test system: ACHN renal
BT-549 breast = test system: BT-549 breast
CAKI-1 renal = test system: CAKI-1 renal
CCRF-CEM leukemia = test system: CCRF-CEM leukemia
COLO 205 colon = test system: COLO 205 colon
DU-145 prostate = test system: DU-145 prostate
EKVX NSCLC = test system: EKVX NSCLC
HCC-2998 colon = test system: HCC-2998 colon
HCT-116 colon = test system: HCT-116 colon
HCT-15 colon = test system: HCT-15 colon
HL-60(TB) leukemia = test system: HL-60(TB) leukemia
HOP-62 NSCLC = test system: HOP-62 NSCLC
HOP-92 NSCLC = test system: HOP-92 NSCLC
HS 578T breast = test system: HS 578T breast
HT29 colon = test system: HT29 colon
IGROV1 ovarian = test system: IGROV1 ovarian
K-562 leukemia = test system: K-562 leukemia
KM12 colon = test system: KM12 colon
LOX IMVI melanoma = test system: LOX IMVI melanoma
M14 melanoma = test system: M14 melanoma
MALME-3M melanoma = test system: MALME-3M melanoma
MCF7 breast = test system: MCF7 breast
MDA-MB-435 melanoma = test system: MDA-MB-435 melanoma
MDA-MB-468 breast = test system: MDA-MB-468 breast
MOLT-4 leukemia = test system: MOLT-4 leukemia
NCI-H226 lung = test system: NCI-H226 lung
NCI-H23 lung = test system: NCI-H23 lung
NCI-H322M lung = test system: NCI-H322M lung
NCI-H460 NSCLC = test system: NCI-H460 NSCLC
NCI-H522 lung = test system: NCI-H522 lung
NCI/ADR-RES ovarian = test system: NCI/ADR-RES ovarian
OVCAR-3 ovarian = test system: OVCAR-3 ovarian
OVCAR-4 ovarian = test system: OVCAR-4 ovarian
OVCAR-8 ovarian = test system: OVCAR-8 ovarian
PC-3 prostate = test system: PC-3 prostate
RPMI-8226 leukemia = test system: RPMI-8226 leukemia
RXF 393 renal = test system: RXF 393 renal
SF-268 CNS = test system: SF-268 CNS
SF-295 CNS = test system: SF-295 CNS
SF-539 CNS = test system: SF-539 CNS
SK-MEL-2 melanoma = test system: SK-MEL-2 melanoma
SK-MEL-28 melanoma = test system: SK-MEL-28 melanoma
SK-MEL-5 melanoma = test system: SK-MEL-5 melanoma
SK-OV-3 ovarian = test system: SK-OV-3 ovarian
SN12C renal = test system: SN12C renal
SNB-19 CNS = test system: SNB-19 CNS
SNB-75 CNS = test system: SNB-75 CNS
SW-620 colon = test system: SW-620 colon
TK-10 renal = test system: TK-10 renal
U251 glioblastoma = test system: U251 glioblastoma
UACC-257 melanoma = test system: UACC-257 melanoma
UACC-62 melanoma = test system: UACC-62 melanoma

SMILES: Cc1ccc(S(=O)(=O)Oc2ccc3sc4cccc(NCCN(C)C)c4c(=O)c3c2)cc1
- GI50 ([…]-0 renal): > 100000 nM
- TGI (786-0 renal): > 100000 nM
- GI50 (A498 renal): > 100000 nM
- TGI (A498 renal): > 100000 nM
- GI50 (A549 NSCLC): 1850 nM
- TGI (A549 NSCLC): 3340 nM
- GI50 (ACHN renal): 1730 nM
- TGI (ACHN renal): 3140 nM
- GI50 (BT-549 breast): 1860 nM
- TGI (BT-549 breast): 3280 nM
- GI50 (CAKI-1 renal): 1650 nM
- TGI (CAKI-1 renal): 3040 nM
- GI50 (CCRF-CEM leukemia): 1700 nM
- TGI (CCRF-CEM leukemia): 3110 nM
- GI50 (COLO 205 colon): 1940 nM
- TGI (COLO 205 colon): 3400 nM
- GI50 (DU-145 prostate): 1970 nM
- TGI (DU-145 prostate): 3430 nM
- GI50 (EKVX NSCLC): 1850 nM
- TGI (EKVX NSCLC): 3280 nM
- GI50 (HCC-2998 colon): 1240 nM
- TGI (HCC-2998 colon): 2510 nM
- GI50 (HCT-116 colon): 1830 nM
- TGI (HCT-116 colon): 3300 nM
- GI50 (HCT-15 colon): > 100000 nM
- TGI (HCT-15 colon): > 100000 nM
- GI50 (HL-60(TB) leukemia): 787 nM
- TGI (HL-60(TB) leukemia): 2060 nM
- GI50 (HOP-62 NSCLC): 2100 nM
- TGI (HOP-62 NSCLC): 3560 nM
- GI50 (HOP-92 NSCLC): 1900 nM
- TGI (HOP-92 NSCLC): 3320 nM
- GI50 (HS 578T breast): 1920 nM
- TGI (HS 578T breast): 3350 nM
- GI50 (HT29 colon): 1710 nM
- TGI (HT29 colon): 3100 nM
- GI50 (IGROV1 ovarian): 1650 nM
- TGI (IGROV1 ovarian): 3010 nM
- GI50 (K-562 leukemia): 1910 nM
- TGI (K-562 leukemia): 3330 nM
- GI50 (KM12 colon): 1790 nM
- TGI (KM12 colon): 3230 nM
- GI50 (LOX IMVI melanoma): 1780 nM
- TGI (LOX IMVI melanoma): 3200 nM
- GI50 (M14 melanoma): 2050 nM
- TGI (M14 melanoma): 3490 nM
- GI50 (MALME-3M melanoma): 1890 nM
- TGI (MALME-3M melanoma): 3310 nM
- GI50 (MCF7 breast): 1380 nM
- TGI (MCF7 breast): 2710 nM
- GI50 (MDA-MB-435 melanoma): 1780 nM
- TGI (MDA-MB-435 melanoma): 3180 nM
- GI50 (MDA-MB-468 breast): 2490 nM
- TGI (MDA-MB-468 breast): 3960 nM
- GI50 (MOLT-4 leukemia): 1590 nM
- TGI (MOLT-4 leukemia): 2950 nM
- GI50 (NCI-H226 lung): 1700 nM
- TGI (NCI-H226 lung): 3080 nM
- GI50 (NCI-H23 lung): 1990 nM
- TGI (NCI-H23 lung): 3420 nM
- GI50 (NCI-H322M lung): 2030 nM
- TGI (NCI-H322M lung): 3480 nM
- GI50 (NCI-H460 NSCLC): 1720 nM
- TGI (NCI-H460 NSCLC): 3220 nM
- GI50 (NCI-H522 lung): > 100000 nM
- TGI (NCI-H522 lung): > 100000 nM
- GI50 (NCI/ADR-RES ovarian): 1830 nM
- TGI (NCI/ADR-RES ovarian): 3240 nM
- GI50 (OVCAR-3 ovarian): 1910 nM
- TGI (OVCAR-3 ovarian): 3330 nM
- GI50 (OVCAR-4 ovarian): > 100000 nM
- TGI (OVCAR-4 ovarian): > 100000 nM
- GI50 (OVCAR-8 ovarian): 2110 nM
- TGI (OVCAR-8 ovarian): 3590 nM
- GI50 (PC-3 prostate): 1810 nM
- TGI (PC-3 prostate): 3220 nM
- GI50 (RPMI-8226 leukemia): 2280 nM
- TGI (RPMI-8226 leukemia): 3750 nM
- GI50 (RXF 393 renal): 1930 nM
- TGI (RXF 393 renal): 3360 nM
- GI50 (SF-268 CNS): 2200 nM
- TGI (SF-268 CNS): 3670 nM
- GI50 (SF-295 CNS): > 100000 nM
- TGI (SF-295 CNS): > 100000 nM
- GI50 (SF-539 CNS): 1860 nM
- TGI (SF-539 CNS): 3290 nM
- GI50 (SK-MEL-2 melanoma): 1990 nM
- TGI (SK-MEL-2 melanoma): 3420 nM
- GI50 (SK-MEL-28 melanoma): 1950 nM
- TGI (SK-MEL-28 melanoma): 3380 nM
- GI50 (SK-MEL-5 melanoma): 1290 nM
- TGI (SK-MEL-5 melanoma): 2580 nM
- GI50 (SK-OV-3 ovarian): 1640 nM
- TGI (SK-OV-3 ovarian): 3020 nM
- GI50 (SN12C renal): 1910 nM
- TGI (SN12C renal): 3330 nM
- GI50 (SNB-19 CNS): 2080 nM
- TGI (SNB-19 CNS): 3540 nM
- GI50 (SNB-75 CNS): 2090 nM
- TGI (SNB-75 CNS): 3530 nM
- GI50 (SW-620 colon): 1880 nM
- TGI (SW-620 colon): 3350 nM
- GI50 (TK-10 renal): > 100000 nM
- TGI (TK-10 renal): > 100000 nM
- GI50 (U251 glioblastoma): 2070 nM
- TGI (U251 glioblastoma): 3540 nM
- GI50 (UACC-257 melanoma): 1890 nM
- TGI (UACC-257 melanoma): 3300 nM
- GI50 (UACC-62 melanoma): 1940 nM
- TGI (UACC-62 melanoma): 3380 nM
